Measured values published in ChEMBL document CHEMBL3865818, “4,5-Diaryl-3H-1,2-dithiole-3-thiones and related compounds as combretastatin A-4/oltipraz hybrids: Synthesis, molecular modelling and evaluation as antiproliferative agents and inhibitors of tubulin” (Eur J Med Chem, 2016).
Calls of active or inactive are those of the source. The rule behind the calls is not given here.

Columns and labels:
[1] = Cell cycle arrest in human KB cells assessed as accumulation at S-phase at 0.2 uM measured after 24 hrs by propidium iodide staining-based flow cytometry (reference value: 16.96%); assay type: functional
[2] = Cell cycle arrest in human KB cells assessed as accumulation at S-phase at 0.05 uM measured after 48 hrs by propidium iodide staining-based flow cytometry (reference value: 13.32%); assay type: functional
[3] = Antiproliferative activity against human KB cells measured after 72 hrs by MTT assay; assay type: functional, cell-based
[4] = Cell cycle arrest in human KB cells assessed as accumulation at S-phase at 0.2 uM measured after 36 hrs by propidium iodide staining-based flow cytometry (reference value: 16.51%); assay type: functional
[5] = Cell cycle arrest in human KB cells assessed as accumulation at G2/M-phase at 0.05 uM measured after 48 hrs by propidium iodide staining-based flow cytometry (reference value: 23.36%); assay type: functional
[6] = Cell cycle arrest in human KB cells assessed as accumulation at SubG1-phase at 0.2 uM measured after 36 hrs by propidium iodide staining-based flow cytometry (reference value: 0.63%); assay type: functional
[7] = Cell cycle arrest in human KB cells assessed as accumulation at G0/G1-phase at 0.1 uM measured after 48 hrs by propidium iodide staining-based flow cytometry (reference value: 58.26%); assay type: functional
[8] = Cell cycle arrest in human KB cells assessed as accumulation at G0/G1-phase at 0.05 uM measured after 24 hrs by propidium iodide staining-based flow cytometry (reference value: 48.52%); assay type: functional
[9] = Cell cycle arrest in human KB cells assessed as accumulation at SubG1-phase at 0.1 uM measured after 36 hrs by propidium iodide staining-based flow cytometry (reference value: 0.63%); assay type: functional
[10] = Cell cycle arrest in human KB cells assessed as accumulation at G2/M-phase at 0.1 uM measured after 12 hrs by propidium iodide staining-based flow cytometry (reference value: 30.19%); assay type: functional
[11] = Cell cycle arrest in human KB cells assessed as accumulation at SubG1-phase at 0.2 uM measured after 60 hrs by propidium iodide staining-based flow cytometry (reference value: 1.24%); assay type: functional
[12] = Cell cycle arrest in human KB cells assessed as accumulation at G2/M-phase at 0.1 uM measured after 60 hrs by propidium iodide staining-based flow cytometry (reference value: 18.9%); assay type: functional
[13] = Cell cycle arrest in human KB cells assessed as accumulation at G0/G1-phase at 0.2 uM measured after 60 hrs by propidium iodide staining-based flow cytometry (reference value: 63.85%); assay type: functional
[14] = Cell cycle arrest in human KB cells assessed as accumulation at SubG1-phase measured after 48 hrs by propidium iodide staining-based flow cytometry (reference value: 0.61%); assay type: functional
[15] = Cell cycle arrest in human KB cells assessed as accumulation at S-phase at 0.05 uM measured after 12 hrs by propidium iodide staining-based flow cytometry (reference value: 15.5%); assay type: functional
[16] = Cell cycle arrest in human KB cells assessed as accumulation at SubG1-phase at 0.1 uM measured after 12 hrs by propidium iodide staining-based flow cytometry (reference value: 1.23%); assay type: functional
[17] = Cell cycle arrest in human KB cells assessed as accumulation at SubG1-phase at 0.05 uM measured after 24 hrs by propidium iodide staining-based flow cytometry (reference value: 0.76%); assay type: functional
[18] = Inhibition of porcine brain tubulin polymerization measured after 60 mins by fluorescence analysis; parameters: species or system Sus scrofa
[19] = Cell cycle arrest in human KB cells assessed as accumulation at SubG1-phase measured after 36 hrs by propidium iodide staining-based flow cytometry (reference value: 0.63%); assay type: functional
KB = test: Inhibition of alpha-tubulin in human KB cells assessed as induction of mitotic catastrophe by measuring multiple micronuclei formation at 0.2 uM by DAPI staining-based immunofluorescence assay; assay type: cell-based
[20] = Cell cycle arrest in human KB cells assessed as accumulation at SubG1-phase at 0.1 uM measured after 48 hrs by propidium iodide staining-based flow cytometry (reference value: 0.61%); assay type: functional
[21] = Cell cycle arrest in human KB cells assessed as accumulation at S-phase at 0.05 uM measured after 24 hrs by propidium iodide staining-based flow cytometry (reference value: 16.96%); assay type: functional
[22] = Cell cycle arrest in human KB cells assessed as accumulation at G2/M-phase measured after 60 hrs by propidium iodide staining-based flow cytometry (reference value: 18.9%); assay type: functional
[23] = Cell cycle arrest in human KB cells assessed as accumulation at S-phase at 0.1 uM measured after 48 hrs by propidium iodide staining-based flow cytometry (reference value: 13.32%); assay type: functional
[24] = Cell cycle arrest in human KB cells assessed as accumulation at G2/M-phase at 0.05 uM measured after 36 hrs by propidium iodide staining-based flow cytometry (reference value: 27.34%); assay type: functional
[25] = Cell cycle arrest in human KB cells assessed as accumulation at G0/G1-phase measured after 36 hrs by propidium iodide staining-based flow cytometry (reference value: 51.51%); assay type: functional
[26] = Cell cycle arrest in human KB cells assessed as accumulation at G0/G1-phase at 0.1 uM measured after 24 hrs by propidium iodide staining-based flow cytometry (reference value: 48.52%); assay type: functional
[27] = Cell cycle arrest in human KB cells assessed as accumulation at G0/G1-phase measured after 24 hrs by propidium iodide staining-based flow cytometry (reference value: 48.52%); assay type: functional
[28] = Cell cycle arrest in human KB cells assessed as accumulation at G0/G1-phase at 0.2 uM measured after 12 hrs by propidium iodide staining-based flow cytometry (reference value: 48.26%); assay type: functional
[29] = Cell cycle arrest in human KB cells assessed as accumulation at G2/M-phase at 0.05 uM measured after 60 hrs by propidium iodide staining-based flow cytometry (reference value: 18.9%); assay type: functional
[30] = Cell cycle arrest in human KB cells assessed as accumulation at S-phase measured after 12 hrs by propidium iodide staining-based flow cytometry (reference value: 15.5%); assay type: functional
[31] = Cell cycle arrest in human KB cells assessed as accumulation at S-phase at 0.2 uM measured after 48 hrs by propidium iodide staining-based flow cytometry (reference value: 13.32%); assay type: functional
[32] = Cell cycle arrest in human KB cells assessed as accumulation at S-phase at 0.1 uM measured after 24 hrs by propidium iodide staining-based flow cytometry (reference value: 16.96%); assay type: functional
[33] = Cell cycle arrest in human KB cells assessed as accumulation at G0/G1-phase at 0.2 uM measured after 36 hrs by propidium iodide staining-based flow cytometry (reference value: 51.51%); assay type: functional
[34] = Cell cycle arrest in human KB cells assessed as accumulation at G0/G1-phase at 0.2 uM measured after 48 hrs by propidium iodide staining-based flow cytometry (reference value: 58.26%); assay type: functional
[35] = Cell cycle arrest in human KB cells assessed as accumulation at G2/M-phase at 0.1 uM measured after 24 hrs by propidium iodide staining-based flow cytometry (reference value: 28.84%); assay type: functional
[36] = Cell cycle arrest in human KB cells assessed as accumulation at G0/G1-phase measured after 60 hrs by propidium iodide staining-based flow cytometry (reference value: 63.85%); assay type: functional

COc1ccc(-c2ssc(=O)c2-c2cc(OC)c(OC)c(OC)c2)cc1N
Activity [1]: 22.2% | Activity [2]: 10.9% | IC50 [3]: 60 nM | Activity [4]: 15.9% | Activity [5]: 18.5% | Activity [6]: 33.2% | Activity [7]: 15.5% | Activity [8]: 36.7% | Activity [9]: 24.3% | Activity [10]: 62.8% | Activity [11]: 55.3% | Activity [12]: 10% | Activity [13]: 10.4% | Activity [14]: 56.1% | Activity [15]: 16.4% | Activity [16]: 2.67% | Activity [17]: 6.04% | IC50 [18]: 4440 nM | Activity [19]: 25.8% | Activity (KB): Active | Activity [20]: 33.6% | Activity [21]: 15.5% | Activity [22]: 15.6% | Activity [23]: 15.3% | Activity [24]: 23% | Activity [25]: 14.4% | Activity [26]: 13.1% | Activity [27]: 6.89% | Activity [28]: 1.63% | Activity [29]: 14% | Activity [30]: 21.5% | Activity [31]: 13.1% | Activity [32]: 25.4% | Activity [33]: 7.48% | Activity [34]: 11.7% | Activity [35]: 41.8% | Activity [36]: 6.81%
